Earlier results in patent publication US6369001B1, “Microemulsion coformulation of a graminicide and a water-soluble herbicide” (Monsanto Technology, LLC, priority 1999, dated 2002).
“Also recorded” adds a separate entry of the source.

Details: aqueous medium

| Compound | pH dependence of chemical stability / hydrolysis in water |
| --- | --- |
| COC(=O)C(C)Oc1ccc(Oc2ccc(Cl)cc2Cl)cc1 (stereo not drawn) [diclofop-methyl] | undergoes hydrolysis more readily in an alkaline medium |
| CCOC(=O)[C@@H](C)Oc1ccc(Oc2cnc3cc(Cl)ccc3n2)cc1 [quizalofop-P-ethyl] | hydrolysis occurring most rapidly when pH is in the alkaline range; also recorded: greater chemical stability in acid to neutral than in alkaline media |
| CCO/N=C(\CC)C1=C(O)CC(c2c(C)cc(C)cc2C)CC1=O (stereo not drawn) [tralkoxydim] | especially unstable in an acid medium; also recorded: much more stable at pH 9 than at pH 5 |
